The numbers were not newly measured in patent publication US5565433A, “Sulfated β-glycolipid derivatives as cell adhesion inhibitors” (Bristol-Myers Squibb Company, priority 1996, dated 1996), which cites them from elsewhere.

Data set [1] relates to P-selectin. Conditions: cells grown in the presence of sodium selenate; cited from earlier work.
In data set [2] the test system is P-selectin. To be noted: Larsen et al.; Erbe et al.; Aruffo et al.; cited from earlier work.

For `O=[Se](=O)(O)O` [sodium selenate], in data set [1], the “inhibition of P-selectin binding to myeloid cell lines (in words)” value is “can be inhibited”.
As for sialyl-Le^x, the “P-selectin binding (in words)” value in data set [2] is “has been shown to bind”.
